Measured values: PMC4464910 (Pharmacological research : the official journal of the …, 2015)

What was measured:
2-AG hydrolysis = 2-AG hydrolysis colorimetric assay in rat brain microsomes; assay type: biochemical; conditions: read-out: 2-AG hydrolysis IC50, n=3
[1] = test system: carrageenan-induced edema; assay: carrageenan-induced paw edema; assay type: in vivo, CD1 mice; conditions: mice, 10 mg kg^−1 oral, P<.001
mechanical hyperalgesia = assay: carrageenan-induced mechanical hyperalgesia; assay type: in vivo, CD1 mice; conditions: mice, oral, time point 4 hours
heat hyperalgesia = assay: carrageenan-induced heat hyperalgesia; assay type: in vivo, CD1 mice; conditions: mice, oral, time point 4 hours
mechanical allodynia = assay type: in vivo, Sprague-Dawley rats; conditions: for ED50 on mechanical allodynia: i.p., time point 1 hour

IC50 (2-AG hydrolysis) | Compound | suppression of edema 24 hours after application [1] | ED50 on mechanical hyperalgesia (mechanical hyperalgesia) | ED50 on heat hyperalgesia (heat hyperalgesia) | ED50 on mechanical allodynia (mechanical allodynia; diabetic rats) | effect on allodynia at 0.3 mg kg^−1 (mechanical allodynia; neuropathic rats, 0.3 mg kg^−1 dose) | effect on allodynia compared with TPPU and URB937 at the same dose (mechanical allodynia; diabetic rats, 3 mg kg^−1 i.p.)
> 100 µM | CCC(=O)N1CCC(NC(=O)Nc2ccc(OC(F)(F)F)cc2)CC1 [TPPU] | still statistically detectable | 1 mg/kg | 0.5 mg/kg | 0.1 mg/kg |  | 
> 100 µM | NC(=O)c1cccc(-c2cc(OC(=O)NC3CCCCC3)ccc2O)c1 [URB937] |  |  | 0.2 mg/kg | 0.3 mg/kg | attenuated allodynia | 
 | O=C(Nc1cccc(OC(F)(F)F)c1)N[C@H]1CC[C@H](Oc2ccc(C(=O)O)cc2)CC1 [t-TUCB, trans-4-[4-(3-trifluoromethoxyphenyl-l-ureido)-cyclohexyloxy]-benzoic acid] |  |  |  |  |  | similar
